In one data set the target is T1, cyanovirin-N (CVN) (Nostoc ellipsosporum, UniProt P81180).
T1 sequence (P81180 1-101): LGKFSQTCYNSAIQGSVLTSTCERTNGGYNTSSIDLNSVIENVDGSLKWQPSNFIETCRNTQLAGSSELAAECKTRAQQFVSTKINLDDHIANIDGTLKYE
Put plainly: High-mannose oligosaccharide microarray incubated with BODIPY-labeled CVN, fluorescence scan. It is filed as binding, Nostoc elliposporum. The settings on record: for BODIPY-labeled CVN fluorescence (binding) on immobilized saccharide spots: BODIPY-CVN 25 μg mL-1, 1 hour, room temperature, BSA coated slide; for CVN spot fluorescence intensity relative to nonamannoside (normalized to background): higher printed concentrations 1 mM-0.5 mM (FIG. 9). Here is the method: Using the aforementioned thiol terminated linker, a series of high-mannose oligosaccharides were prepared (Scheme 6). Arrays were printed on a BSA coated slide, as above, varying the concentration of printed oligosaccharide, and blocked with 3-mercaptoproprionic acid.
It was of interest to establish whether the microarray platform may serve to probe relative affinities of CVN for the different high-mannose structures. A microarray containing the four oligosaccharide structures was prepared with carbohydrate concentrations ranging from 0.008 mM to 2 mM. […] At lower dilutions, however, this trend is reversed. This discrepancy from the isocalorimetry data can be explained by the density of covalently immobilized saccharide at saturating concentrations. We hypothesize that the size of the nonasaccharide, compared to the other structures immobilized, might sterically occlude reactive sites leading to decreased amounts of immobilized structure. As previously observed, two distinct CVN binding domains can each interact with a single α1,2-linked linear trimannoside. We reason that a higher surface concentrations of 3 permits this multivalent interaction to take place.
Functionalization of slides: SuperAldehyde slides (TeleChem International) were immersed in 50 mL phosphate buffered saline (PBS) containing 1% bovine serum albumin (BSA; w/v) and incubated overnight at room temperature. The slides were rinsed twice with distilled H2O (100 mL), twice with 95% ethanol (50 mL) and then dried under a stream of dry Ar. Thereafter the slides were immersed in 45 mL of anhydrous DMF (Aldrich) containing 65 mg succinimidyl-4-(Nmaleimidomethyl)cyclohexane-1-carboxyiate. (Pierce Chemical) and 100 mM N,N-Diisopropylethylamine (Aldrich). The slides were incubated in this solution for 24 hours at room temperature, washed 4 times with 95% ethanol (50 mL) and then stored in a vacuum dessicator until used for microarray fabrication.
Microarray fabrication: Thiol functionalized carbohydrates were incubated 1 hr at room temperature with 1 equivalent tris-(carboxyethyl)phosphine hydrochloride (TCEP) in 1×PBS, and printed on the maleimide derivitized glass slides using a MicroGrid TAS array printer. Prints were performed at 30% humidity using either a 16-pin or 32-pin format, with a spot size of 120 μm and a distance of 300 μm between the centers of adjacent spots. Thereafter, the slides were stored in a humid chamber at room temperature for 12 hours, washed 2 times with distilled H2O, and then incubated for 1 hour in 1 mM 3-mercaptopropionic acid in PBS (50 mL) to quench all remaining maleimide groups. The slides were washed three times with distilled H2O (50 mL), two times with 95% ethanol (50 mL) and then stored in a vacuum dessicator until used for binding experiments.
Detection of protein-carbohydrate interactions: In experiments involving FITC labeled ConA (Sigma), the lectin was used at 25 μg mL^−1 in 10 mM HEPES-BSA buffer (pH 7.5, 1 mM CaCl2, 1 mM MnCl2, 100 mM NaCl, 1% (w/v) BSA). In experiments involving BODIPY-labeled CVN, the CVN was used at 25 μg mL-1 in 10 mM PBS containing 1% BSA. For all incubations, 0.55 mL of protein solution was applied to the slide using a PC500 CoverWell incubation chamber (Grace BioLabs). Following a 1 hour incubation at room temperature, the slides were washed three times with 50 mL of the same buffer used in the incubation, twice with 50 mL distilled H2O and then centrifuged at 200 g for 5 minutes to ensure complete dryness. To visualize fluorescence, the slides were scanned using an ArrayWoRx fluorescence slide scanner (Applied Precision).

The target of another data set is cyanovirin N (CV-N) (Nostoc ellipsosporum, UniProt P81180). The data set is described as follows: Fiber optic microsphere array incubated with BODIPY-labeled CV-N. It is filed as binding. The settings on record: CV-N 50 μg mL^−1, five minutes; excitation 488 nm. From the text:
Five synthetic carbohydrates (1,3-6) were immobilized on microspheres carrying a unique internal code for each structure. A small aliquot of each of the five dispersions was mixed together and used to microsphere array.
At five minutes the CV-N solution was removed and replaced with a fresh buffer solution. BODIPY excitation wavelength (488 nm) was passed through the optical fiber and BODIPY emission wavelengths were collected on the CCD camera. Three of the five structures (3,5,6) present were bound by CV-N in accordance with isothermal microcalorimetry studies P. H. Seeberger et al. Chemistry and Biology 2002, 9, 1109.

The next data set addresses T2, CVN (Nostoc ellipsosporum, UniProt P81180).
T2 sequence (P81180 1-101): T1 sequence (P81180 1-101)
Particulars: recent isothermocalorimetry and NMR study; read-out: Kd of CVN binding; cited from earlier work.

Data set [1] deals with T3, Concanavalin A (ConA) (Canavalia ensiformis, UniProt P02866). The data set is described as follows: Carbohydrate microarray incubated with FITC-labeled ConA, fluorescence scan. The settings on record: FITC-ConA 25 μg mL^−1, 1 hour, room temperature; 120 μm spots on maleimide-BSA slide. It is filed as binding. From the text: Protein-carbohydrate interactions were examined using the mannose/glucose specific lectin Concanavalin A (ConA). Microarrays were constructed through the maleimide derivatization of BSA coated glass slides to create a thiol-reactive surface (FIG. 1). Thiol derivatized mannose and galactose were printed as 120 μm spots using a microarray printing robot. The remaining maleimide groups were subsequently quenched with a solution of 3-mercaptopropionic acid to render the slides unreactive to cysteine containing proteins. The carbohydrate microarrays were incubated with a solution of FITC-labeled ConA. The arrays were thoroughly rinsed with buffer, dried by centrifugation and scanned with a fluorescence slide scanner. […] Utilizing proteins conjugated to fluorophores of non-overlapping excitation and-emission spectra enabled facile two-color detection. […] See Bidlingmaier, S.; Synder, M. Chemistry and Biology 2002, 9, 400. […]
Detection of protein-carbohydrate interactions: In experiments involving FITC labeled ConA (Sigma), the lectin was used at 25 μg mL^−1 in 10 mM HEPES-BSA buffer (pH 7.5, 1 mM CaCl2, 1 mM MnCl2, 100 mM NaCl, 1% (w/v) BSA). […] To visualize fluorescence, the slides were scanned using an ArrayWoRx fluorescence slide scanner (Applied Precision).

For data set [2], the target named is T3, Concanavalin A (ConA).
In a further data set the test system is HIV strains. The settings on record: natural and recombinant forms of CVN; cited from earlier work.
The test system of another data set is host cells. Particulars: natural and recombinant forms of CVN; cited from earlier work.

The values below come from patent US20050221337A1, “Microarrays and microspheres comprising oligosaccharides, complex carbohydrates or glycoproteins” (priority 2003, published 2005).

For the molecule linear trimannoside [compound 3], at cyanovirin-N (CVN), the “BODIPY-labeled CVN fluorescence (binding) on immobilized saccharide spots” value (shortened to “BODIPY-labeled CVN fluorescence”) is on record as “fluorescence was detected” and the “CVN spot fluorescence intensity relative to nonamannoside (normalized to background)” value is reported as “higher fluorescence intensities than the nonamannoside”. The “BODIPY-labeled CV-N binding to oligosaccharide-bearing beads” value (shortened to “BODIPY-labeled CV-N binding”) on cyanovirin N (CV-N) is on record as “bound by CV-N”. In addition, the dissociation constant (Kd) (usually the equilibrium constant for the complex coming apart) on CVN was 3480 nM.

As to branched trimannoside [compound 4], the “BODIPY-labeled CVN fluorescence” value at cyanovirin-N (CVN) is “no binding activity”.

Turning to hexamannoside [compound 5], on cyanovirin-N (CVN), the “BODIPY-labeled CVN fluorescence” value is recorded as “fluorescence was detected” and the “CVN spot fluorescence intensity relative to nonamannoside (normalized to background)” value is listed as “higher fluorescence intensities than the nonamannoside”. Also, on cyanovirin N (CV-N), the “BODIPY-labeled CV-N binding” value was “bound by CV-N”.

Turning to `O=C[C@H](O)[C@@H](O)[C@@H](O)[C@H](O)CO` [compound 2, galactose], at Concanavalin A (ConA) [1], the “FITC-labeled ConA fluorescence on immobilized saccharide spots” value was “no fluorescence”. Moreover, the “BODIPY-labeled CVN fluorescence” value at cyanovirin-N (CVN) was “no binding activity”. The “fluorescence of beads in dilution series of labeled ConA” value on Concanavalin A (ConA) [2] (labeled ConA 0 to 400 μg mL^−1, very high lectin concentrations (FIG. 18)) is on record as “no increase in fluorescence”. In addition, the “labeled ConA binding to saccharide-bearing beads (rhodamine fluorescence)” value on Concanavalin A (ConA) [2] (labeled ConA 50 μg mL^−1, five minutes) is “no ConA was observed”.

nonamannoside [compound 6]: the “BODIPY-labeled CVN fluorescence” value at cyanovirin-N (CVN) is given as “fluorescence was detected”. Besides, the “CVN fluorescence signal in dilution series microarray at low printed concentrations” value on cyanovirin-N (CVN) (printed carbohydrate 0.008 mM to 2 mM (FIG. 8)) is given as “showed discernable fluorescence at concentrations where the signals of the other structures were unobservable”. The “BODIPY-labeled CV-N binding” value on cyanovirin N (CV-N) is “bound by CV-N”. The dissociation constant Kd at CVN is 270 nM.

B1: CVN: HIV-inactivating 11 kDa protein from Nostoc ellipsosporum that binds high-mannose oligosaccharides of gp120 (protein, UniProt P81180 1-101, looked up)
Cyanovirin-N: T1 sequence (P81180 1-101)
In the case of B1, the “inactivation of HIV strains” value in the data set on HIV strains is “irreversibly inactivate a wide variety of HIV strains”. In the data set with host cells, the “toxicity to host cells” value is listed as “minimal toxicity to host cells”.
